From article PMC10220883, “Relating Molecular Dynamics Simulations to Functional Activity for Gly-Rich Membranolytic Helical Kiadin Peptides” (Pharmaceutics, 2023)
No end group written: not given here.

What was measured:
[1] = test system: human red blood cells (RBC); conditions: cited from earlier work; for HC50 (haemolytic activity, text): 0.5% human erythrocytes in PBS
[2] = test system: Staphylococcus aureus ATCC 25923; set-up: method as in PMID 29553266; conditions: cited from earlier work; for S. aureus MIC: microdilution, Mueller–Hinton broth, 5 × 10^5 CFU/mL, overnight 37 °C, no visual growth; for S. aureus MBC: no visible growth on MH agar after 18 h at 37 °C of aliquots from MIC, 2 × MIC, 4 × MIC wells
[3] = test system: MEC-1 chronic lymphocytic leukaemia cell line; experiment: MTT cytotoxicity assay; type: cell-based, human; set-up: Cytotoxicity MEC-1 (qualitative score): key to the marks not given beside the values; conditions: for IC50 MEC-1 cells: tested range 5 to 50 µM
Method: Cytotoxicity was also assessed on a human lymphocytic cell line by using the 3-(4,5-dimethylthiazol-2-yl)-2,5-diphenyl tetrazolium bromide (MTT) assay. The MEC-1 chronic lymphocytic leukaemia cell line was kindly provided by Prof. P. Macor (Department of Life Sciences, University of Trieste, IT). MEC-1 cells were cultured in RPMI 1640 complete medium supplemented with 2 mM L-glutamine, 100 U/mL penicillin, 100 µg/mL streptomycin and 10% foetal bovine serum (FBS) and were subcultured two/three times a week for not more than 20 passages. The colorimetric MTT assay was performed to assess the metabolic activity of cells plated onto 96-well culture plates (10^5 cells/well, V^f = 100 µL) that had been exposed to 5 to 50 µM kiadins for 24 h. Twenty microlitres of a stock MTT solution (5 mg/mL) were added to each well after 20 h and left to incubate for the remaining 4 h. The converted MTT dye was then solubilized with acidic isopropanol (0.04 N HCl in absolute isopropanol). Absorbance was measured at 540 and 630 nm using an automated microplate reader (EL311, BIO-TEK® Instruments, Charlotte, VT, USA). All measurements were carried out at least in triplicate. An IC50 value was estimated as the concentration of peptide causing a 50% decrease in viability, calculated using GraphPad Prism software.

[4] = test system: Escherichia coli ATCC 25922; set-up: method as in PMID 29553266; conditions: cited from earlier work; for E. coli MIC: microdilution, Mueller–Hinton broth, 5 × 10^5 CFU/mL, overnight 37 °C, no visual growth; for E. coli MBC: no visible growth on MH agar after 18 h at 37 °C of aliquots from MIC, 2 × MIC, 4 × MIC wells
[5] = test system: human red blood cells (RBC); experiment: Haemolytic activity assay; type: cell-based; set-up: key to the marks not given beside the values
Method: Haemolytic activity was previously reported by Roncevic et al. and was evaluated by incubating 0.5% erythrocytes provided by an informed healthy donor with serially diluted peptides in 96-well microtiter plates. Haemoglobin release was monitored at 450 nm. Triton-X was used as a positive control, and the incubation of red blood cells in PBS without peptides was the negative control. A HC50 value was calculated as the concentration causing 50% haemolysis.

[6] = Surface plasmon resonance binding to immobilized liposomes; conditions: SPR, L1 chip with DOPC LUVs, PBS, 0.5 to 16 μM peptide, affinity-steady state model; estimated; repeated three times; read-out: KD (equilibrium dissociation constant)
Method: Large unilamellar vesicles (LUVs) were prepared as described by Morgera et al.. Briefly, dry 1,2-dioleoyl-sn-glycero-3-phosphocholine (DOPC) or phosphatidylglycerol:diphosphatidylglycerol (DPPG) was dissolved in chloroform/methanol (2:1) solution, then evaporated using a dry nitrogen stream and vacuum-dried for 24 h. The liposome cake was resuspended in 1 mL of sodium phosphate buffer (SPB) to a concentration of 5 mM phospholipid and spun for 1 h at 40 °C. The vesicles were then subjected to several freeze–thaw cycles before passing through a mini-extruder (Avanti Polar Lipids, Alabaster, AL, USA) with successive polycarbonate filters having 1, 0.4 and 0.1 μm pores before resuspending to a final phospholipid concentration of 0.4 mM. By calculating the surface area of a ∼100 nm liposome and taking into account the average area of a phospholipid headgroup (∼0.7 nm^2) (similar to the value determined in MD simulations), the concentration of the liposomes was estimated to be about 5 nM.
Peptide–membrane interactions were studied using an X-100 instrument (Biacore, GE Lifesciences). LUVs were prepared using DOPC as described above. The extruded unilamellar LUVs were then diluted to result in ~1 mM phospholipid in PBS. The L1 sensor chip was preconditioned and loaded with the LUVs, as described previously. […]

Substance | HC50 (haemolytic activity, text) [1] | S. aureus MIC [2] | S. aureus MBC [2] | MEC-1 IC50 (concentration causing 50% decrease in viability) ([3]; MTT, 10^5 cells/well, 5 to 50 µM peptide, 24 h, RPMI 1640 with 10% FBS, at least triplicate) | IC50 MEC-1 cells ([3]; MTT, 24 h) | E. coli MIC [4] | E. coli MBC [4] | Cytotoxicity RBC (qualitative score) [5] | Cytotoxicity MEC-1 (qualitative score) [3] | Haemolytic activity (in words) ([1]; 0.5% human erythrocytes, up to highest tested concentration) | Kd [6]
H-KIAKGALKALKIAKGALKAL-NH2 [kiadin-3] | about 95 μM | 16 to 32 mM | 32 mM | >50 µM | > 50 µM | 4 mM | 16 mM |  |  |  | 
H-KIAKVALKALKIAKGALKAL-NH2 [kiadin-1] |  | 0.5 to 1 mM | 1.5 mM |  |  | 0.75 mM | 0.75 mM | +++ | +++ |  | 
H-KIALKALKALKALGKALKAL-NH2 [kiadin-6] |  | 4 mM | 4 mM |  |  | 1 to 2 mM | 2 to 4 mM |  |  |  | 
H-KIGKALGKALKALGKALGKA-NH2 [kiadin-4] |  | 16 to 32 mM | 32 mM |  |  | 8 mM | 16 mM |  |  |  | 
KIAGKAGKIAKIAGKAGKIA-NH2 [kiadin-5, ab initio designed 20-residue amidated peptide with quadruple Gly substitution] |  | >64 mM | >64 mM |  |  | >64 mM | >64 mM |  |  | not to be haemolytic up to the highest tested concentration | 
KIAKGALKALKIAKVALKAL-NH2 [kiadin-2] |  | 8 to 16 mM | 8 to 16 mM |  |  | 0.25 to 0.5 mM | 0.5 to 1 mM | ++ | ++ |  | 
KIAKVALKALKIAKVALKAL-NH2 [diPGLa-H] | about 22 μM | 0.75 mM | 1.5 mM |  | 9 ± 3 µM | 1.5 mM | 1.5 mM |  |  |  | ~5 µM
